Results published in ChEMBL document CHEMBL1201862, “PubChem BioAssay data set” (2004).
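All cell lines were grown in 96-well plates and treated with compound for 48 hours. The concentration for 50% growth inhibition is given as GI50.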 Calls of active or inactive are those of the source. Rule as the data show it: active = GI50 up to about 1.1 µM and inactive = higher.

Experiments:
Assay in all cases: NCI-60 cell line screen, 48 h
K562 = tested on: K562
SF-539 = tested on: SF-539
HOP-92 = tested on: HOP-92
786-0 = tested on: 786-0
NCI-H460 = tested on: NCI-H460
SK-MEL-28 = tested on: SK-MEL-28
SNB-19 = tested on: SNB-19
SNB-75 = tested on: SNB-75
Malme-3M = tested on: Malme-3M
EKVX = tested on: EKVX
MDA-N = tested on: MDA-N
OVCAR-8 = tested on: OVCAR-8
MDA-MB-231 = tested on: MDA-MB-231
T47D = tested on: T47D
U-251 = tested on: U-251
UO-31 = tested on: UO-31
Hs-578T = tested on: Hs-578T
NCI/ADR-RES = tested on: NCI/ADR-RES
SF-268 = tested on: SF-268
SK-MEL-5 = tested on: SK-MEL-5
SK-OV-3 = tested on: SK-OV-3
BT-549 = tested on: BT-549
A549 = tested on: A549
OVCAR-5 = tested on: OVCAR-5
NCI-H226 = tested on: NCI-H226
DU-145 = tested on: DU-145
RPMI-8226 = tested on: RPMI-8226
HOP-62 = tested on: HOP-62
NCI-H23 = tested on: NCI-H23
HT-29 = tested on: HT-29
CAKI-1 = tested on: CAKI-1
SN12C = tested on: SN12C
HCT-116 = tested on: HCT-116
TK-10 = tested on: TK-10
ACHN = tested on: ACHN
A498 = tested on: A498
SF-295 = tested on: SF-295
HCT-15 = tested on: HCT-15
PC-3 = tested on: PC-3
UACC-257 = tested on: UACC-257
NCI-H522 = tested on: NCI-H522
M14 = tested on: M14
MDA-MB-435 = tested on: MDA-MB-435
COLO 205 = tested on: COLO 205
KM12 = tested on: KM12
OVCAR-3 = tested on: OVCAR-3
SK-MEL-2 = tested on: SK-MEL-2
IGROV-1 = tested on: IGROV-1
RXF 393 = tested on: RXF 393
MCF7 = tested on: MCF7
OVCAR-4 = tested on: OVCAR-4
SW-620 = tested on: SW-620
UACC-62 = tested on: UACC-62
HL-60 = tested on: HL-60
MOLT-4 = tested on: MOLT-4
CCRF-CEM = tested on: CCRF-CEM
HCC 2998 = tested on: HCC 2998

SMILES: Cc1ccc(C2=Nc3ccccc3SC(c3cccc([N+](=O)[O-])c3)C2)cc1 (stereo not drawn)
- GI50 (K562): 6.56 µM (inactive)
- GI50 (SF-539): 3.8 µM (inactive)
- GI50 (HOP-92): 10.4 µM (inactive)
- GI50 (786-0): 6.3 µM (inactive)
- GI50 (NCI-H460): 27.9 µM (inactive)
- GI50 (SK-MEL-28): > 100 µM (inactive)
- GI50 (SNB-19): 26.9 µM (inactive)
- GI50 (SNB-75): 11.4 µM (inactive)
- GI50 (Malme-3M): 26.7 µM (inactive)
- GI50 (EKVX): 49.7 µM (inactive)
- GI50 (MDA-N): 15.7 µM (inactive)
- GI50 (OVCAR-8): 10.2 µM (inactive)
- GI50 (MDA-MB-231): 40.6 µM (inactive)
- GI50 (T47D): 10.7 µM (inactive)
- GI50 (U-251): 4.59 µM (inactive)
- GI50 (UO-31): 5.4 µM (inactive)
- GI50 (Hs-578T): 14.3 µM (inactive)
- GI50 (NCI/ADR-RES): 59.6 µM (inactive)
- GI50 (SF-268): 16.2 µM (inactive)
- GI50 (SK-MEL-5): 15.4 µM (inactive)
- GI50 (SK-OV-3): 31.1 µM (inactive)
- GI50 (BT-549): 15.7 µM (inactive)
- GI50 (A549): 26.2 µM (inactive)
- GI50 (OVCAR-5): > 100 µM (inactive)
- GI50 (NCI-H226): > 100 µM (inactive)
- GI50 (DU-145): 13.1 µM (inactive)
- GI50 (RPMI-8226): 2.38 µM (inactive)
- GI50 (HOP-62): 27.6 µM (inactive)
- GI50 (NCI-H23): 11.8 µM (inactive)
- GI50 (HT-29): 5.96 µM (inactive)
- GI50 (CAKI-1): 51.4 µM (inactive)
- GI50 (SN12C): 34.1 µM (inactive)
- GI50 (HCT-116): 3.6 µM (inactive)
- GI50 (TK-10): 14.5 µM (inactive)
- GI50 (ACHN): > 100 µM (inactive)
- GI50 (A498): > 100 µM (inactive)
- GI50 (SF-295): 28.4 µM (inactive)
- GI50 (HCT-15): 48.1 µM
- GI50 (PC-3): 10.2 µM (inactive)
- GI50 (UACC-257): 24.7 µM (inactive)
- GI50 (NCI-H522): 9.59 µM (inactive)
- GI50 (M14): 23.9 µM (inactive)
- GI50 (MDA-MB-435): 13.1 µM (inactive)
- GI50 (COLO 205): 58.7 µM (inactive)
- GI50 (KM12): 8.04 µM (inactive)
- GI50 (OVCAR-3): 8.59 µM (inactive)
- GI50 (SK-MEL-2): 34 µM (inactive)
- GI50 (IGROV-1): 8.34 µM (inactive)
- GI50 (RXF 393): 16.4 µM (inactive)
- GI50 (MCF7): 4.08 µM (inactive)
- GI50 (OVCAR-4): 27.4 µM (inactive)
- GI50 (SW-620): 3.18 µM (inactive)
- GI50 (UACC-62): > 100 µM (inactive)

SMILES: O=C(c1ccc(Cl)cc1)N(C(=S)OC12CC3CC(CC(C3)C1)C2)c1ccccc1
- GI50 (K562): 29.8 µM (inactive)
- GI50 (SF-539): 30.7 µM (inactive)
- GI50 (HOP-92): 34 µM (inactive)
- GI50 (786-0): 29.6 µM (inactive)
- GI50 (NCI-H460): 30 µM (inactive)
- GI50 (SK-MEL-28): > 100 µM (inactive)
- GI50 (SNB-19): 29.6 µM (inactive)
- GI50 (HL-60): 17 µM (inactive)
- GI50 (MOLT-4): 26.9 µM (inactive)
- GI50 (SNB-75): 42.9 µM (inactive)
- GI50 (Malme-3M): 54.3 µM (inactive)
- GI50 (EKVX): 26.6 µM (inactive)
- GI50 (MDA-N): 49.5 µM (inactive)
- GI50 (OVCAR-8): 39.2 µM (inactive)
- GI50 (MDA-MB-231): 29.4 µM (inactive)
- GI50 (T47D): 54.5 µM (inactive)
- GI50 (U-251): 30.2 µM (inactive)
- GI50 (UO-31): 27 µM (inactive)
- GI50 (Hs-578T): 39.9 µM (inactive)
- GI50 (NCI/ADR-RES): 36.5 µM (inactive)
- GI50 (SF-268): 43.3 µM (inactive)
- GI50 (SK-MEL-5): 32 µM (inactive)
- GI50 (SK-OV-3): 53.1 µM (inactive)
- GI50 (BT-549): 43.2 µM (inactive)
- GI50 (A549): 31.9 µM (inactive)
- GI50 (OVCAR-5): 45.6 µM (inactive)
- GI50 (NCI-H226): 30.9 µM (inactive)
- GI50 (DU-145): 76.4 µM (inactive)
- GI50 (HOP-62): 45.5 µM (inactive)
- GI50 (NCI-H23): 35.6 µM (inactive)
- GI50 (HT-29): 32.3 µM (inactive)
- GI50 (CAKI-1): 35.2 µM (inactive)
- GI50 (CCRF-CEM): 16.3 µM (inactive)
- GI50 (SN12C): 45.2 µM (inactive)
- GI50 (HCT-116): 33.5 µM (inactive)
- GI50 (TK-10): 37.1 µM (inactive)
- GI50 (ACHN): 34.8 µM (inactive)
- GI50 (A498): 64.7 µM (inactive)
- GI50 (SF-295): 36.8 µM (inactive)
- GI50 (HCT-15): 34.6 µM
- GI50 (PC-3): 34 µM (inactive)
- GI50 (UACC-257): 46.6 µM (inactive)
- GI50 (NCI-H522): 21.1 µM (inactive)
- GI50 (M14): 34 µM (inactive)
- GI50 (MDA-MB-435): 43.8 µM (inactive)
- GI50 (COLO 205): 16.8 µM (inactive)
- GI50 (KM12): 39.1 µM (inactive)
- GI50 (OVCAR-3): 44.6 µM (inactive)
- GI50 (SK-MEL-2): 30.1 µM (inactive)
- GI50 (RXF 393): 99.8 µM (inactive)
- GI50 (MCF7): 33.3 µM (inactive)
- GI50 (OVCAR-4): 39.5 µM (inactive)
- GI50 (HCC 2998): 31.6 µM (inactive)
- GI50 (SW-620): 34.4 µM (inactive)
- GI50 (UACC-62): 40.6 µM (inactive)
